Measurements reported in patent US11613525B2 (CTXT PTY LIMITED, priority 2018, dated 2023).
pEC50: −log10 of the molar value. Where two headings read alike, the source gives them in different places.

Assays:
huSTING (WT) = huSTING (WT) (Homo sapiens (Human), UniProt Q86WV6, H232R); assay: THP-1 reporter cell line assay, THP-1-Dual KI-hSTING-R232 cells; format: cell-based; settings: read-out: Cellular EC50 huSTING (WT)
huSTING (HAQ) = huSTING (HAQ) (Homo sapiens (Human), UniProt Q86WV6, G230A/H232R/R293Q/R71H); assay: THP-1 reporter cell line assay, THP-1 STING Lucia ISG cells; format: cell-based; settings: THP-1 STING Lucia ISG cells, read-out: Cellular EC50 huSTING (HAQ)
[1] = modified method, top concentration 40 μM, pin tool, EnVision

Chain of huSTING (HAQ) (Q86WV6 whole entry R71H/G230A/H232R/R293Q): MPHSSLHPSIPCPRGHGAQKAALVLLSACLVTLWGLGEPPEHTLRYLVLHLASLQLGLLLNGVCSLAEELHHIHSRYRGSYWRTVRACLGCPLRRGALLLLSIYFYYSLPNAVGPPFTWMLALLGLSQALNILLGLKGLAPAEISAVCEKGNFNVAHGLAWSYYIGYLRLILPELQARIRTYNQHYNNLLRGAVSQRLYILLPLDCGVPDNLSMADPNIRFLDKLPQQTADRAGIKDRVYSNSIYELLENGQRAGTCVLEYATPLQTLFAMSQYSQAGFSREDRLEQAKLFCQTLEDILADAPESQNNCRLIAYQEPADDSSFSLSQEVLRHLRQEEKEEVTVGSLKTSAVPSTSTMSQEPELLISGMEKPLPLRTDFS
Chain of huSTING (WT) (Q86WV6 whole entry H232R): as the sequence (Q86WV6 whole entry R71H/G230A/H232R/R293Q) above, with H71R, A230G, Q293R counted along it

Compound	pEC50 (huSTING (WT))	pEC50 (huSTING (HAQ); 24 h, top concentration 50 μM)	pEC50 (huSTING (HAQ); [1])
CCOC(=O)c1sc2cccc(Cl)c2c1COc1c(F)cc(C(N)=O)cc1F [Example 68, Ethyl 3-((4-carbamoyl-2,6-difluorophenoxy)methyl)-4-chlorobenzo[b]thiophene-2-carboxylate]	5.79	6.59	–
NC(=O)c1ccc(OCc2c(C(=O)NCc3ccccc3)sc3cccc(Br)c23)cc1 [Example 166, N-Benzyl-4-bromo-3-((4-carbamoylphenoxy)methyl)benzo[b]thiophene-2-carboxamide]	4.54	–	5.00
COc1cccc2sc(C(=O)OCc3ccccc3)c(COc3ccc(C(N)=O)cc3)c12 [Example 156, Benzyl 3-((4-carbamoylphenoxy)methyl)-4-methoxybenzo[b]thiophene-2-carboxylate]	5.35	–	6.20
CCOC(=O)c1sc2c(CO)ccc(Cl)c2c1COc1c(F)cc(C(N)=O)cc1F [Example 145, Ethyl 3-((4-carbamoyl-2,6-difluorophenoxy)methyl)-4-chloro-7-(hydroxymethyl)benzo[b]thiophene-2-carboxylate]	5.42	–	6.13
CCOC(=O)c1sc2cccc(Cl)c2c1CNc1ccc(C(N)=O)cc1 [Example 75, Ethyl 3-(((4-carbamoylphenyl)amino)methyl)-4-chlorobenzo[b]thiophene-2-carboxylate]	< 4.30	4.75	–
CC(OC(=O)c1sc2cccc(Cl)c2c1COc1c(F)cc(C(N)=O)cc1F)OC(=O)C(C)C (stereo not shown) [Example 135, 1-(Isobutyryloxy)ethyl 3-((4-carbamoyl-2,6-difluorophenoxy)methyl)-4-chlorobenzo[b]thiophene-2-carboxylate]	6.48	–	7.19
CC(C)OC(=O)OC(C)OC(=O)c1sc2cccc(Cl)c2c1COc1c(F)cc(C(N)=O)cc1F (stereo not shown) [Example 132, 1-((Isopropoxycarbonyl)oxy)ethyl 3-((4-carbamoyl-2,6-difluorophenoxy)methyl)-4-chlorobenzo[b]thiophene-2-carboxylate]	6.04	–	7.01
CCOC(=O)c1sc2cc(Cl)cc(F)c2c1COc1ccc(C(N)=O)cc1 [Example 19, Ethyl 3-((4-carbamoylphenoxy)methyl)-6-chloro-4-fluorobenzo[b]thiophene-2-carboxylate]	< 4.30	< 4.30	–
CCOC(=O)c1sc2cccc(Cl)c2c1COc1c(F)cc(C(N)=O)cc1CO [Example 110, Ethyl 3-((4-carbamoyl-2-fluoro-6-(hydroxymethyl)phenoxy)methyl)-4-chlorobenzo[b]thiophene-2-carboxylate]	7.28	–	7.89
Cc1oc(=O)oc1COC(=O)c1sc2cccc(Cl)c2c1COc1c(F)cc(C(N)=O)cc1F [Example 126, (5-Methyl-2-oxo-1,3-dioxol-4-yl)methyl 3-((4-carbamoyl-2,6-difluorophenoxy)methyl)-4-chlorobenzo[b]thiophene-2-carboxylate]	6.73	–	7.41
CC(C)(C)C(=O)OCOC(=O)c1sc2cccc(Br)c2c1COc1c(F)cc(C(N)=O)cc1F [Example 128, (Pivaloyloxy)methyl 4-bromo-3-((4-carbamoyl-2,6-difluorophenoxy)methyl)benzo[b]thiophene-2-carboxylate]	6.68	–	7.17
CCOC(=O)c1sc2cccc(Cl)c2c1COc1ccc(C(N)=O)c(F)c1F [Example 66, Ethyl 3-((4-carbamoyl-2,3-difluorophenoxy)methyl)-4-chlorobenzo[b]thiophene-2-carboxylate]	< 4.30	5.10	–
CCOC(=O)c1sc2c(C)ccc(Cl)c2c1COc1c(F)cc(C(N)=O)cc1F [Example 144, Ethyl 3-((4-carbamoyl-2,6-difluorophenoxy)methyl)-4-chloro-7-methylbenzo[b]thiophene-2-carboxylate]	6.03	–	7.64
CCOC(=O)c1sc2c(F)ccc(Br)c2c1COc1c(F)cc(C(N)=O)cc1F [Example 116, Ethyl 4-bromo-3-((4-carbamoyl-2,6-difluorophenoxy)methyl)-7-fluorobenzo[b]thiophene-2-carboxylate]	7.12	–	7.62
CCOC(=O)c1sc2ccc(F)c(Cl)c2c1COc1ccc(C(N)=O)cc1 [Example 83, Ethyl 3-((4-carbamoylphenoxy)methyl)-4-chloro-5-fluorobenzo[b]thiophene-2-carboxylate]	< 4.30	5.58	–
CCOC(=O)c1sc2c(O)ccc(Cl)c2c1COc1c(F)cc(C(N)=O)cc1F [Example 147, Ethyl 3-((4-carbamoyl-2,6-difluorophenoxy)methyl)-4-chloro-7-hydroxybenzo[b]thiophene-2-carboxylate]	5.79	–	7.19
CCOC(=O)c1sc2c(COC)ccc(Cl)c2c1COc1c(F)cc(C(N)=O)cc1F [Example 146, Ethyl 3-((4-carbamoyl-2,6-difluorophenoxy)methyl)-4-chloro-7-(methoxymethyl)benzo[b]thiophene-2-carboxylate]	5.67	–	7.39
CCOC(=O)c1sc2cccc(Cl)c2c1COc1c(OC)cc(C(N)=O)cc1OC [Example 41, Ethyl 3-((4-carbamoyl-2,6-dimethoxyphenoxy)methyl)-4-chlorobenzo[b]thiophene-2-carboxylate]	5.61	6.10	–

Compound	pEC50 (huSTING (WT))	pEC50 (huSTING (HAQ); 24 h, top concentration 50 μM)	pEC50 (huSTING (HAQ); [1])
CCOC(=O)c1sc2cccc(F)c2c1COc1c(F)cc(C(N)=O)cc1Br [Example 55, Ethyl 3-((2-bromo-4-carbamoyl-6-fluorophenoxy)methyl)-4-fluorobenzo[b]thiophene-2-carboxylate]	< 4.30	5.44	–
CCOC(=O)c1sc2cc(F)cc(F)c2c1COc1ccc(C(N)=O)cc1 [Example 31, Ethyl 3-((4-carbamoylphenoxy)methyl)-4,6-difluorobenzo[b]thiophene-2-carboxylate]	5.16	5.17	–
CCOC(=O)c1sc2cccc(Br)c2c1COc1c(F)cc(C(N)=O)cc1F [Example 89, Ethyl 4-bromo-3-((4-carbamoyl-2,6-difluorophenoxy)methyl)benzo[b]thiophene-2-carboxylate]	6.83	–	7.80
CCOC(=O)c1sc2cccc(C)c2c1COc1ccc(C(N)=O)cc1 [Example 77, Ethyl 3-((4-carbamoylphenoxy)methyl)-4-methylbenzo[b]thiophene-2-carboxylate]	5.49	6.15	–
CCOC(=O)c1sc2cccc(OC)c2c1COc1ccc(C(N)=O)cc1 [Example 33, Ethyl 3-((4-carbamoylphenoxy)methyl)-4-methoxybenzo[b]thiophene-2-carboxylate]	6.05	6.18	–
CCOC(=O)c1sc2ccc(F)c(F)c2c1COc1ccc(C(N)=O)cc1 [Example 15, Ethyl 3-((4-carbamoylphenoxy)methyl)-4,5-difluorobenzo[b]thiophene-2-carboxylate]	5.59	5.62	–
CCOC(=O)c1sc2cccc(C(F)(F)F)c2c1COc1ccc(C(N)=O)cc1 [Example 35, Ethyl 3-((4-carbamoylphenoxy)methyl)-4-(trifluoromethyl)benzo[b]thiophene-2-carboxylate]	5.89	6.18	–
CCOC(=O)c1sc2cccc(Br)c2c1COc1ccc(C(N)=O)cc1 [Example 21, Ethyl 4-bromo-3-((4-carbamoylphenoxy)methyl)benzo[b]thiophene-2-carboxylate]	6.24	6.32	–
CCOC(=O)c1sc2c(F)ccc(F)c2c1COc1ccc(C(N)=O)cc1 [Example 81, Ethyl 3-((4-carbamoylphenoxy)methyl)-4,7-difluorobenzo[b]thiophene-2-carboxylate]	4.68	5.55	–
CCOC(=O)c1sc2ccc(C)c(Cl)c2c1COc1ccc(C(N)=O)cc1 [Example 17, Ethyl 3-((4-carbamoylphenoxy)methyl)-4-chloro-5-methylbenzo[b]thiophene-2-carboxylate]	< 4.30	4.83	–
CCOC(=O)c1sc2ncnc(OC)c2c1COc1c(F)cc(C(N)=O)cc1F [Example 108]	6.47	–	6.46
CN(C)C(=O)OCOC(=O)c1sc2cccc(Cl)c2c1COc1c(F)cc(C(N)=O)cc1F [Example 138, ((Dimethylcarbamoyl)oxy)methyl 3-((4-carbamoyl-2,6-difluorophenoxy)methyl)-4-chlorobenzo[b]thiophene-2-carboxylate]	6.62	–	7.85
CCC(=O)OC(OC(=O)c1sc2c(F)ccc(Br)c2c1COc1c(F)cc(C(N)=O)cc1F)C(C)C (stereo not shown) [Example 140, 2-Methyl-1-(propionyloxy)propyl 4-bromo-3-((4-carbamoyl-2,6-difluorophenoxy)methyl)-7-fluorobenzo[b]thiophene-2-carboxylate]	6.80	–	7.34
CC(C)(C)C(=O)OCOC(=O)c1sc2c(F)ccc(Br)c2c1COc1c(F)cc(C(N)=O)cc1F [Example 131]	7.24	–	7.36
CCOC(=O)c1sc2ccnc(Cl)c2c1COc1c(F)cc(C(N)=O)cc1F [Example 91, Ethyl 3-((4-carbamoyl-2,6-difluorophenoxy)methyl)-4-chlorothieno[3,2-c]pyridine-2-carboxylate]	6.06	–	6.57
CCOC(=O)c1sc2cccc(Cl)c2c1COc1ccc(C(N)=O)c(OC)c1 [Example 97, Ethyl 3-((4-carbamoyl-3-methoxyphenoxy)methyl)-4-chlorobenzo[b]thiophene-2-carboxylate]	5.01	–	5.84
CCOC(=O)c1sc2cccc(OC)c2c1COc1c(F)cc(C(N)=O)cc1F [Example 165, Ethyl 3-((4-carbamoyl-2,6-difluorophenoxy)methyl)-4-methoxybenzo[b]thiophene-2-carboxylate]	5.21	–	6.90
